Values of other authors as cited in US10633688B2, “Systems and methods for predicting response to minoxidil for the treatment of androgenetic alopecia” (Follea International, priority 2010, dated 2020).

Columns and labels:
[1] = test system: female androgenetic alopecia; settings: females
SULT1A1 = target: T1, SULT1A1 (Homo sapiens, UniProt P50225)
T1 construct: Plucked hairs were collected from the border between bald and non-bald scalp and inspected visually for an intact bulb; from tissue; host or cells: plucked anagen scalp hair (hair bulb / follicle) of AGA patients
T1 sequence (P50225 whole entry): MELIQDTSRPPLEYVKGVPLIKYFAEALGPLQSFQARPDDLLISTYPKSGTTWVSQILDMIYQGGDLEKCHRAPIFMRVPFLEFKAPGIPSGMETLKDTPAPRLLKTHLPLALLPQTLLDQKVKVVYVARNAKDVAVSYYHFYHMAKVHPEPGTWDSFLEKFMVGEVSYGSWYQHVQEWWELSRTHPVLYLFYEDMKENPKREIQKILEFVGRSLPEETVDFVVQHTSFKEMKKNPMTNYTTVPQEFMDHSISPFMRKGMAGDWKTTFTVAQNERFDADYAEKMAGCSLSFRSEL

Structure (SMILES)	effectiveness in the treatment of female androgenetic alopecia [1]	effect on SULT1A1 sulfation of minoxidil (SULT1A1)
CC(C)(C)NC(=O)[C@H]1CC[C@H]2[C@@H]3CC[C@H]4NC(=O)C=C[C@]4(C)[C@H]3CC[C@]12C [finasteride]	failed to show the effectiveness	–
O=C(O)c1ccccc1O [salicylic acid]	–	lower SULT1A1 sulfation of minoxidil by competitive inhibition
